Laboratory results as given in PMC11480511 (Scientific Reports, 2024).

How the values were obtained:
HL-60(TB) = test: NCI single-dose growth inhibition screen; type: cell-based; details: Homo sapiens; Leukemia HL-60(TB); single dose 10^−5 M
SNB-19 = test: NCI single-dose growth inhibition screen; type: cell-based; details: Homo sapiens; CNS Cancer SNB-19; single dose 10^−5 M
UO-31 = test: NCI single-dose growth inhibition screen; type: cell-based, human; details: single dose 10^−5 M; for inhibition at 10 µM: Homo sapiens, UO-31, Renal Cancer UO-31; for Growth Inhibition (%): Renal Cancer UO-31
SK-MEL-28 = test: NCI single-dose growth inhibition screen; type: cell-based; details: Homo sapiens; Melanoma SK-MEL-28; single dose 10^−5 M
MDA-MB-435 = test: NCI single-dose growth inhibition screen; type: cell-based; details: Homo sapiens; Melanoma MDA-MB-435; single dose 10^−5 M
MDA-MB-468 = test: NCI single-dose growth inhibition screen; type: cell-based; details: Homo sapiens; Breast Cancer MDA-MB-468; single dose 10^−5 M
IGROV1 = test: NCI single-dose growth inhibition screen; type: cell-based; details: Homo sapiens, IGROV-1; Ovarian Cancer IGROV1; single dose 10^−5 M
BT-549 = test: NCI single-dose growth inhibition screen; type: cell-based; details: Homo sapiens; Breast Cancer BT-549; single dose 10^−5 M
RXF 393 = test: NCI single-dose growth inhibition screen; type: cell-based; details: Homo sapiens; Renal Cancer RXF 393; single dose 10^−5 M
UACC-62 = test: NCI single-dose growth inhibition screen; type: cell-based; details: Homo sapiens; Melanoma UACC-62; single dose 10^−5 M
TK-10 = test: NCI single-dose growth inhibition screen; type: cell-based; details: Homo sapiens; Renal Cancer TK-10; single dose 10^−5 M
SNB-75 = test: NCI single-dose growth inhibition screen; type: cell-based, human; details: single dose 10^−5 M; for inhibition at 10 µM: Homo sapiens, SNB-75, CNS Cancer SNB-75
NCI-H522 = test: NCI single-dose growth inhibition screen; type: cell-based; details: Homo sapiens; Non-Small Cell Lung Cancer NCI-H522; single dose 10^−5 M
topoisomerase IIβ = target: T1, topoisomerase IIβ (Homo sapiens, UniProt Q02880); test: Topoisomerase II inhibition, human DNA topoisomerase Elisa kit; type: biochemical; details: ± SEM; read-out: Topoisomerase II IC50 µM ± SEM
T1 construct: purchased
T1 sequence (Q02880 whole entry): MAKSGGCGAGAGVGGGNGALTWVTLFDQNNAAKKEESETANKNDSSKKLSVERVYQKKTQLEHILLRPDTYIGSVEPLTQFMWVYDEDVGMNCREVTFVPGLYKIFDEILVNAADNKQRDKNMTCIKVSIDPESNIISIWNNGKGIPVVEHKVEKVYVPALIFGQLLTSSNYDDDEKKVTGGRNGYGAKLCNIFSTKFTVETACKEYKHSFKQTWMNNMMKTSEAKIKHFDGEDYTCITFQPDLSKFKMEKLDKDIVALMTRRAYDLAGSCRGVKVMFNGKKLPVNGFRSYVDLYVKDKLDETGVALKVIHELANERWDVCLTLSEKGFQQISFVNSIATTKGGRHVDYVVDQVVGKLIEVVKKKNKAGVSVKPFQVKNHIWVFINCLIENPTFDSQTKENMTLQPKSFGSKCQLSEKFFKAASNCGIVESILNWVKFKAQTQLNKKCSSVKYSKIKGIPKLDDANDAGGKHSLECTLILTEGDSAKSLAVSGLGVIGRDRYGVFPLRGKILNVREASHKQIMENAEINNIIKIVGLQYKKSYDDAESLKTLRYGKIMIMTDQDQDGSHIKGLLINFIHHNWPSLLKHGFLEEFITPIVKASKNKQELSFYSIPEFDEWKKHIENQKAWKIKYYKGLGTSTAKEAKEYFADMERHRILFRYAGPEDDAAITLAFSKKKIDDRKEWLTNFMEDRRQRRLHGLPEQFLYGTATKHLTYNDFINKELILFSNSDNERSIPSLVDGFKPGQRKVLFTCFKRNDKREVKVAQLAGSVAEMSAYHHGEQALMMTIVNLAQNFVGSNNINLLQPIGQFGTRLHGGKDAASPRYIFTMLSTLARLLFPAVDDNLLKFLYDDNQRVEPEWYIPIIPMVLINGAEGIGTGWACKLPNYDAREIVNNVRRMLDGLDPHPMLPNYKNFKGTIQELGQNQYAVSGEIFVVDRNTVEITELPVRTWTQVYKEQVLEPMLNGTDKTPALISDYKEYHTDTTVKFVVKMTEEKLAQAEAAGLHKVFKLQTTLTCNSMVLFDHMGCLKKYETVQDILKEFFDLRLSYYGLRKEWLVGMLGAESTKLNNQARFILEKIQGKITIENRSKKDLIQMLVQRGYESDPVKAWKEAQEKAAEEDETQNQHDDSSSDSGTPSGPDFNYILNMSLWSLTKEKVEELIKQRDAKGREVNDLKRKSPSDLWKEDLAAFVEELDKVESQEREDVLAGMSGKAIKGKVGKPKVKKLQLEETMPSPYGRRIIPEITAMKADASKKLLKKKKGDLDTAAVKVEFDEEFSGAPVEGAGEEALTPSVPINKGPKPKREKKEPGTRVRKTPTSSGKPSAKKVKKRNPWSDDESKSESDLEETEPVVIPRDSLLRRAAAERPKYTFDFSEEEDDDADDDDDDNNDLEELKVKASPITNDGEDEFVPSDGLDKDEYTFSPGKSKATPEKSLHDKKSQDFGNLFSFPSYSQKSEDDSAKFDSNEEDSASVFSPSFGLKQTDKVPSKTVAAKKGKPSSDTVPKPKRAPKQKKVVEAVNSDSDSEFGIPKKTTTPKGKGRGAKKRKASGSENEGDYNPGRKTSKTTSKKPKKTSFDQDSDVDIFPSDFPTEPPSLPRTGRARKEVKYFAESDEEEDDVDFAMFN
Description: Two folds of serial dilution was accomplished after standards and the tested compounds were dissolved in sample diluent. Horseradish peroxidase (HRP-avidin) and biotin-conjugated antibody were diluted 10 times each. Each well received 100 µL of each concentration of the standard or test chemicals, which were then added and incubated at 37 °C for 60 min. […] The microtiter plate was rinsed three times and given room to aspirate. After that, the plate was incubated at 37 °C for 60 min with 100 µL of HRP-avidin solution added to each well. After that, the plate was aspirated and cleaned 5 times. Each well received 90 µL of TMB substrate, and the plate was incubated for 30 min. at 37 °C in a light-protected environment. Finally, stop solution (50 µL) was loaded, and within 5 min, the absorbance at 450 nm was measured spectrophotometrically.
Topoisomerase enzyme assay
Topoisomerase I and II inhibitory activity […]
topoisomerase IIβ inhibitory activity utilizing the human DNA topoisomerase Elisa kit.
Standards and the tested compound were dissolved in sample diluent and 2 folds serial dilution was achieved. Biotin-conjugated antibody and avidin conjugated Horseradish Peroxidase (HRP-avidin) were diluted to 10 folds. 100 μL of each concentration of standard or test compound were added to each well. Incubate at 37 °C for 1 h. The liquid in each well was removed. 10 0 μL of Biotin-conjugated antibody solution was added to each well followed by incubation for 1 h at 37 °C. The microtiter plate was allowed to aspirate and washed 3 times. 100 μL of avidin conjugated Horseradish Peroxidase (HRP -avidin) solution was added to each well and the plate was incubated for 1 h at 37 °C. The plate was aspirated and washed 5 times. 90 μL of TMB substrate were added to each well and the plate was incubated for 30 min at 37 °C and protected from light. 50 μL stop so lution was added. The absorbance was measured spectrophotometrically within 5 min at 450 nm .

M14 = test: NCI single-dose growth inhibition screen; type: cell-based; details: Homo sapiens; Melanoma M14; single dose 10^−5 M
Description: Following the guidelines established by the drug evaluation department of the National Cancer Institute (NCI), USA, all target compounds 3a–l were examined against 60 cancer cell lines at a single concentration of 10 µM.
The anti-cancer potential of the tested compounds was evaluated at the National cancer institute (NCI), USA, against 9 panels of 60 various cell lines derived from nine human tumours available usually at NCI library. The procedures for the screening were described in details in NCI website (dttp://www.dtp.nci.nih.gov.) and were done according to NCI protocols[60] . The anticancer screening was carried out at single dose of 10^−5 M, NCI, Bethesda, USA. The results obtained as growth inhibition (%).

MCF7 = test: NCI single-dose growth inhibition screen; type: cell-based, human; details: single dose 10^−5 M; for Growth Inhibition (%): Breast Cancer MCF7; for inhibition at 10 µM: Homo sapiens, MCF7, Breast Cancer MCF7
HCT-116 = test: NCI single-dose growth inhibition screen; type: cell-based; details: Homo sapiens; Colon Cancer HCT-116; single dose 10^−5 M
K-562 = test: NCI single-dose growth inhibition screen; type: cell-based; details: Homo sapiens, K562; Leukemia K-562; single dose 10^−5 M
[1] = tested on: A498 renal cancer cell line; test: cells; details: Homo sapiens; for viability at 0.4 µM / viability at 1.6 µM / viability at 25 µM / viability at 100 µM: A498; for IC50: A498, read-out: In vitro cytotoxicity (IC50) A498 cell line (µM ± SEM)
T-47D = test: NCI single-dose growth inhibition screen; type: cell-based; details: Homo sapiens, T47D; Breast Cancer T-47D; single dose 10^−5 M
SF-539 = test: NCI single-dose growth inhibition screen; type: cell-based; details: Homo sapiens; CNS Cancer SF-539; single dose 10^−5 M
SK-MEL-2 = test: NCI single-dose growth inhibition screen; type: cell-based; details: Homo sapiens; Melanoma SK-MEL-2; single dose 10^−5 M

Structure (SMILES): O=C(O)c1cn(C2CC2)c2cc(N3CCN(C(=O)CCCN4C(=O)SC(=Cc5ccccc5)C4=O)CC3)c(F)cc2c1=O [3a, 7-[4-[4-[5-benzylidene-2,4-dioxo-thiazolidin-3-yl]butanoyl]piperazin-1-yl]-1-cyclopropyl-6-fluoro-4-oxo-quinoline-3-carboxylic acid]
- inhibition at 10 µM (HL-60(TB)): < 0%
- inhibition at 10 µM (SNB-19): 9.8%
- inhibition at 10 µM (UO-31): 53.2%
- Growth Inhibition (%) (UO-31): 36.0%
- inhibition at 10 µM (SK-MEL-28): 9%
- inhibition at 10 µM (MDA-MB-435): 7.8%
- inhibition at 10 µM (MDA-MB-468): 12.9%
- inhibition at 10 µM (IGROV1): 8.5%
- inhibition at 10 µM (BT-549): 7.3%
- inhibition at 10 µM (RXF 393): < 0%
- inhibition at 10 µM (UACC-62): 28.6%
- inhibition at 10 µM (TK-10): < 0%
- inhibition at 10 µM (SNB-75): 29.1%
- inhibition at 10 µM (NCI-H522): 27.4%
- IC50 (topoisomerase IIβ): 35.6 ± 1.94 µM
- inhibition at 10 µM (M14): 8.2%
- Growth Inhibition (%) (MCF7): 55.9%
- inhibition at 10 µM (MCF7): 55.9%
- inhibition at 10 µM (HCT-116): 19.3%
- inhibition at 10 µM (K-562): 22.5%
- viability at 0.4 µM [1]: 103%
- viability at 1.6 µM [1]: 92.7%
- viability at 25 µM [1]: 69.3%
- viability at 100 µM [1]: 56.1%
- IC50 [1]: > 150 µM
- inhibition at 10 µM (T-47D): 8.1%
- inhibition at 10 µM (SF-539): 8.9%
- inhibition at 10 µM (SK-MEL-2): 10.1%

Structure (SMILES): O=C(O)c1cn(C2CC2)c2cc(N3CCN(C(=O)CCCN4C(=O)SC(=Cc5cccc6ccccc56)C4=O)CC3)c(F)cc2c1=O [3j, 1-cyclopropyl-6-fluoro-7-[4-[4-[5-(1-naphthylmethylene)-2,4-dioxo-thiazolidin-3-yl]butanoyl]piperazin-1-yl]-4-oxo-quinoline-3-carboxylic acid]
- inhibition at 10 µM (HL-60(TB)): < 0%
- inhibition at 10 µM (SNB-19): 20.1%
- inhibition at 10 µM (UO-31): 48.1%
- inhibition at 10 µM (SK-MEL-28): 4.5%
- inhibition at 10 µM (MDA-MB-435): 12.8%
- inhibition at 10 µM (MDA-MB-468): 4.7%
- inhibition at 10 µM (IGROV1): 25.9%
- inhibition at 10 µM (BT-549): 20.5%
- inhibition at 10 µM (RXF 393): 11.2%
- inhibition at 10 µM (UACC-62): 20.4%
- inhibition at 10 µM (TK-10): < 0%
- inhibition at 10 µM (SNB-75): 28.4%
- inhibition at 10 µM (NCI-H522): 18.5%
- IC50 (topoisomerase IIβ): 39.8 ± 2.17 µM
- inhibition at 10 µM (M14): 16.7%
- Growth Inhibition (%) (MCF7): 41.7%
- inhibition at 10 µM (MCF7): 41.7%
- inhibition at 10 µM (HCT-116): 10.6%
- inhibition at 10 µM (K-562): 10.9%
- viability at 0.4 µM [1]: 84.7%
- viability at 1.6 µM [1]: 71.9%
- viability at 25 µM [1]: 51.4%
- viability at 100 µM [1]: 42.5%
- IC50 [1]: 33.9 ± 1.91 µM
- inhibition at 10 µM (T-47D): 7.5%
- inhibition at 10 µM (SF-539): 9.9%
- inhibition at 10 µM (SK-MEL-2): < 0%

Structure (SMILES): O=C(O)c1cn(C2CC2)c2cc(N3CCN(C(=O)CCCN4C(=O)S/C(=C\c5ccc([N+](=O)[O-])cc5)C4=O)CC3)c(F)cc2c1=O [3k]
- inhibition at 10 µM (HL-60(TB)): < 0%
- inhibition at 10 µM (SNB-19): < 0%
- inhibition at 10 µM (UO-31): 42%
- Growth Inhibition (%) (UO-31): 41.1%
- inhibition at 10 µM (SK-MEL-28): < 0%
- inhibition at 10 µM (MDA-MB-435): < 0%
- inhibition at 10 µM (MDA-MB-468): < 0%
- inhibition at 10 µM (IGROV1): 15.9%
- inhibition at 10 µM (BT-549): 1%
- inhibition at 10 µM (RXF 393): 47.9%
- inhibition at 10 µM (UACC-62): 2%
- inhibition at 10 µM (TK-10): 33.5%
- Growth Inhibition (%) (SNB-75; CNS Cancer SNB-75): 42.5%
- inhibition at 10 µM (SNB-75): 42.5%
- IC50 (topoisomerase IIβ): 18.7 ± 1.02 µM
- inhibition at 10 µM (M14): < 0%
- inhibition at 10 µM (MCF7): < 0%
- inhibition at 10 µM (HCT-116): < 0%
- inhibition at 10 µM (K-562): < 0%
- viability at 0.4 µM [1]: 103%
- viability at 1.6 µM [1]: 93.1%
- viability at 25 µM [1]: 72.6%
- viability at 100 µM [1]: 60.5%
- IC50 [1]: > 150 µM
- inhibition at 10 µM (T-47D): < 0%
- inhibition at 10 µM (SF-539): 6%
- inhibition at 10 µM (SK-MEL-2): < 0%

Structure (SMILES): O=C(O)c1cn(C2CC2)c2cc(N3CCN(C(=O)CCCN4C(=O)S/C(=C\c5ccc(F)cc5)C4=O)CC3)c(F)cc2c1=O [3i]
- inhibition at 10 µM (HL-60(TB)): < 0%
- inhibition at 10 µM (SNB-19): 6.2%
- inhibition at 10 µM (UO-31): 21.7%
- inhibition at 10 µM (SK-MEL-28): 1.5%
- inhibition at 10 µM (MDA-MB-435): 1.6%
- inhibition at 10 µM (MDA-MB-468): 7.6%
- inhibition at 10 µM (IGROV1): 1.3%
- inhibition at 10 µM (BT-549): 8.6%
- inhibition at 10 µM (RXF 393): < 0%
- inhibition at 10 µM (UACC-62): 19.3%
- inhibition at 10 µM (TK-10): 4.7%
- inhibition at 10 µM (SNB-75): 16.5%
- inhibition at 10 µM (NCI-H522): 22.9%
- IC50 (topoisomerase IIβ): 15 ± 0.81 µM
- inhibition at 10 µM (M14): 4.6%
- inhibition at 10 µM (MCF7): 1.3%
- inhibition at 10 µM (HCT-116): 4.5%
- inhibition at 10 µM (K-562): < 0%
- viability at 0.4 µM [1]: 95.7%
- viability at 1.6 µM [1]: 83.5%
- viability at 25 µM [1]: 65%
- viability at 100 µM [1]: 52.3%
- IC50 [1]: 147 ± 8.3 µM
- inhibition at 10 µM (T-47D): 5%
- inhibition at 10 µM (SF-539): 5.8%
- inhibition at 10 µM (SK-MEL-2): < 0%
